Data as given in ChEMBL document CHEMBL2046292, “The macrocycle of leinamycin imparts hydrolytic stability to the thiol-sensing 1,2-dithiolan-3-one 1-oxide unit of the natural product” (Bioorg Med Chem Lett, 2012).

Tests used:
Assay type in all cases: physicochemical
[1] = Half life of the compound at 70 uM in MOPS aqueous buffer (250 mM, pH 7.0) containing MeCN (25% v/v) at 24 degC by HPLC analysis; settings: pH 7, 70 µM
[2] = Half life of the compound at 70 uM in MOPS aqueous buffer (300 mM, pH 7.0) containing MeCN (25% v/v) at 24 degC in presence of 700 uM GSH by HPLC analysis; settings: pH 7, 70 µM
[3] = Half life of the compound in sodium phosphate buffer (10 mM, pH 7.0) at 37 degC containing methanol (10% v/v)
[4] = Half life of the compound at 100 uM in HEPES buffer (250 mM, pH 7.0) at 24 degC containing no organic solvent

CC1(C)[S+]([O-])SC(=O)[C@@]1(C)O (stereo partly drawn)
t1/2 [1]: 0.883 h | t1/2 [2]: 0.0467 h

CC1(C)[S+]([O-])SC(=O)[C@]1(C)O (stereo partly drawn)
t1/2 [1]: 1.87 h | t1/2 [2]: 0.0633 h

C/C1=C\[C@@H](O)C(=O)/C=C/C=C\c2csc(n2)[C@@H](C)NC(=O)C[C@@]2(CC1)[S+]([O-])SC(=O)[C@]2(C)O (stereo partly drawn) [LEINAMYCIN]
half-life [3]: 8 h | t1/2 [1]: 27 h | t1/2 [2]: 0.173 h | half-life at 100 µM [4]: 16.1 h
